Key:
Assay type in all cases: binding
[1] = target: kinases (KINOMEscan panel) (Homo sapiens, UniProt O00750); conditions: PIK3C2B; NEW KINOMEscan
[2] = target: kinases (KINOMEscan panel) (Homo sapiens, UniProt P07948); conditions: NEW KINOMEscan
[3] = target: T1, kinases (KINOMEscan panel) (Homo sapiens, UniProt P29322); conditions: kinase EPHA8; NEW KINOMEscan
T1 sequence (P29322 28-1005): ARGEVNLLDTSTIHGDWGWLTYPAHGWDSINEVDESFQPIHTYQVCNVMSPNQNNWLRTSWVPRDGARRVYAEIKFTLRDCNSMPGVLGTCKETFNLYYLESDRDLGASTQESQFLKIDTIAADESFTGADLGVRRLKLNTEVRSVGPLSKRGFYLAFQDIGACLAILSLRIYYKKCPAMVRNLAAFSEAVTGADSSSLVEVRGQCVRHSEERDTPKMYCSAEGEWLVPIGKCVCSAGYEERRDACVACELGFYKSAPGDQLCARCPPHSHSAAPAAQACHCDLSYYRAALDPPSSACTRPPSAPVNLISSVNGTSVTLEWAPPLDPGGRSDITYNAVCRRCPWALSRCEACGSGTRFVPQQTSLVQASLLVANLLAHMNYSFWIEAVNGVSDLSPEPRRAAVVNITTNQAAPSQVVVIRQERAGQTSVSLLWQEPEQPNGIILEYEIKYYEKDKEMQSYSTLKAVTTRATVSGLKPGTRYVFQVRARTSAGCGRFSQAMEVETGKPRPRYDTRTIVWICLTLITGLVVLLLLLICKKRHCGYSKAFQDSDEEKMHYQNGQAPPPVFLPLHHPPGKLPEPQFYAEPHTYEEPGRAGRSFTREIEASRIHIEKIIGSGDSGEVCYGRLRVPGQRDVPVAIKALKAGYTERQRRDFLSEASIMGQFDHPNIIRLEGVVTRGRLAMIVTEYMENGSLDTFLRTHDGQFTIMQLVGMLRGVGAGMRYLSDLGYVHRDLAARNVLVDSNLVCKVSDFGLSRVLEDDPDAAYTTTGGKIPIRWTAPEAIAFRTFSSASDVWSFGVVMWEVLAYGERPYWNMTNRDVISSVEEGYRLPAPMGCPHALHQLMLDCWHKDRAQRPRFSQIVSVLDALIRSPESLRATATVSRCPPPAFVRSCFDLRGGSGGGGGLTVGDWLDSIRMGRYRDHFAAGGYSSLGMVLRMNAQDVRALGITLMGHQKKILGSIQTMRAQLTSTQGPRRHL

[4] = target: kinases (KINOMEscan panel) (Homo sapiens, UniProt P53355); conditions: kinase DAPK1; NEW KINOMEscan
[5] = target: T2, kinases (KINOMEscan panel) (Homo sapiens, UniProt P54753); conditions: kinase EPHB3; NEW KINOMEscan
T2 sequence (P54753 34-998): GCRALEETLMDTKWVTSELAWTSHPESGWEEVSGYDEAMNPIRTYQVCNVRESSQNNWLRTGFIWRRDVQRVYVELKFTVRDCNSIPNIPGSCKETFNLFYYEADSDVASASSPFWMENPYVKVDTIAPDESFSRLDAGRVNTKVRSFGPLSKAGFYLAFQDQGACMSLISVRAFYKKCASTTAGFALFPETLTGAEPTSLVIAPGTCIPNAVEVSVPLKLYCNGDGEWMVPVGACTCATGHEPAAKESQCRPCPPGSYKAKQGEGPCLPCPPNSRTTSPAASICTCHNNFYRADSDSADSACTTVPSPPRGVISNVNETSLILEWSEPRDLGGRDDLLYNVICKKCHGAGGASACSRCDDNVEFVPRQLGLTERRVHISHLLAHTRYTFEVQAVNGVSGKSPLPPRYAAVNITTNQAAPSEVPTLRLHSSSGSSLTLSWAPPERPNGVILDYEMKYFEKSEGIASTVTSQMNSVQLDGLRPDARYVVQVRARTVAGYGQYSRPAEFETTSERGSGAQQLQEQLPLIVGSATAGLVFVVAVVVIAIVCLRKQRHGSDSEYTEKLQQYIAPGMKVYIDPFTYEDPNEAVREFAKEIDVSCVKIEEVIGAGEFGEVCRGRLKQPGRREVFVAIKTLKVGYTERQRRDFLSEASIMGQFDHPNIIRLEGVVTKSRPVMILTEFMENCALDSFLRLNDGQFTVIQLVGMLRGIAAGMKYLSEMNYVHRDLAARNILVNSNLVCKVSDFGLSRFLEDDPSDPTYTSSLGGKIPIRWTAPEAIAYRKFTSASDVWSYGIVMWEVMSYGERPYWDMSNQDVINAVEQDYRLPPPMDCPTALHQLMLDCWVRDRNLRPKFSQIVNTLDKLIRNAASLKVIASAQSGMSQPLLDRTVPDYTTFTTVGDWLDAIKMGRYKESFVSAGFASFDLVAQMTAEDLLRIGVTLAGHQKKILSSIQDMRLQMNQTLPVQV

[6] = target: T3, kinases (KINOMEscan panel) (Homo sapiens, UniProt Q02156); conditions: kinase PRKCE; NEW KINOMEscan
T3 sequence (Q02156 1-737): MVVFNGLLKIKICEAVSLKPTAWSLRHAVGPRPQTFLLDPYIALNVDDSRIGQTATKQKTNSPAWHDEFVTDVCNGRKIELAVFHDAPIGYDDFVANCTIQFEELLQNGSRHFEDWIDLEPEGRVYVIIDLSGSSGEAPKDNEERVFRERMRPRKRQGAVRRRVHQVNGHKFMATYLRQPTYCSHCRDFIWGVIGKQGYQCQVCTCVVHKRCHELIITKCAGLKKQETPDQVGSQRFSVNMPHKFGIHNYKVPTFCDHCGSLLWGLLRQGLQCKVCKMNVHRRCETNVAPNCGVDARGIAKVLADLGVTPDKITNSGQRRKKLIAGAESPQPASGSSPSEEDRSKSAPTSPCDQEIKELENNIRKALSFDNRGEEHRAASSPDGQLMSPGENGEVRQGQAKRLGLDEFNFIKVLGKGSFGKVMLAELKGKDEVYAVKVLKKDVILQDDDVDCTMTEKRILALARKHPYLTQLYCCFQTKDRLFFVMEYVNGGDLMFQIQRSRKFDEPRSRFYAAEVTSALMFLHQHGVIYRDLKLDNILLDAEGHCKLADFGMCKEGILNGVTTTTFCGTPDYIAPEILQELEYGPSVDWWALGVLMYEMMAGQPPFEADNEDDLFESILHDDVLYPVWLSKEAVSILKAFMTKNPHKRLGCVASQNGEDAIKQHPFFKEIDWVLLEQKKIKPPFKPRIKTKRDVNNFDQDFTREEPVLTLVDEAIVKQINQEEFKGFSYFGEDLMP

[7] = target: kinases (KINOMEscan panel) (Homo sapiens, UniProt Q16539)
Sequence of kinases (KINOMEscan panel) (Homo sapiens, UniProt Q16539) (Q16539 whole entry): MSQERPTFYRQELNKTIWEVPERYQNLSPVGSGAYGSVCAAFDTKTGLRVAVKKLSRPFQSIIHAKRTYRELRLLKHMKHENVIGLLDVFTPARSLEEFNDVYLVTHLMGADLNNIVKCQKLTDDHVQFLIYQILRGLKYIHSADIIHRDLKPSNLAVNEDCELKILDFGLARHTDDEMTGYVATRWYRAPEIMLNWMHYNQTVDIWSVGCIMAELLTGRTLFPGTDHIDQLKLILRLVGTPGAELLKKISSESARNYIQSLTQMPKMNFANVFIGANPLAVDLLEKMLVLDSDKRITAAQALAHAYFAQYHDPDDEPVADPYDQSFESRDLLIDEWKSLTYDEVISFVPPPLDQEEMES

Sequence of kinases (KINOMEscan panel) (Homo sapiens, UniProt P53355) (P53355 whole entry): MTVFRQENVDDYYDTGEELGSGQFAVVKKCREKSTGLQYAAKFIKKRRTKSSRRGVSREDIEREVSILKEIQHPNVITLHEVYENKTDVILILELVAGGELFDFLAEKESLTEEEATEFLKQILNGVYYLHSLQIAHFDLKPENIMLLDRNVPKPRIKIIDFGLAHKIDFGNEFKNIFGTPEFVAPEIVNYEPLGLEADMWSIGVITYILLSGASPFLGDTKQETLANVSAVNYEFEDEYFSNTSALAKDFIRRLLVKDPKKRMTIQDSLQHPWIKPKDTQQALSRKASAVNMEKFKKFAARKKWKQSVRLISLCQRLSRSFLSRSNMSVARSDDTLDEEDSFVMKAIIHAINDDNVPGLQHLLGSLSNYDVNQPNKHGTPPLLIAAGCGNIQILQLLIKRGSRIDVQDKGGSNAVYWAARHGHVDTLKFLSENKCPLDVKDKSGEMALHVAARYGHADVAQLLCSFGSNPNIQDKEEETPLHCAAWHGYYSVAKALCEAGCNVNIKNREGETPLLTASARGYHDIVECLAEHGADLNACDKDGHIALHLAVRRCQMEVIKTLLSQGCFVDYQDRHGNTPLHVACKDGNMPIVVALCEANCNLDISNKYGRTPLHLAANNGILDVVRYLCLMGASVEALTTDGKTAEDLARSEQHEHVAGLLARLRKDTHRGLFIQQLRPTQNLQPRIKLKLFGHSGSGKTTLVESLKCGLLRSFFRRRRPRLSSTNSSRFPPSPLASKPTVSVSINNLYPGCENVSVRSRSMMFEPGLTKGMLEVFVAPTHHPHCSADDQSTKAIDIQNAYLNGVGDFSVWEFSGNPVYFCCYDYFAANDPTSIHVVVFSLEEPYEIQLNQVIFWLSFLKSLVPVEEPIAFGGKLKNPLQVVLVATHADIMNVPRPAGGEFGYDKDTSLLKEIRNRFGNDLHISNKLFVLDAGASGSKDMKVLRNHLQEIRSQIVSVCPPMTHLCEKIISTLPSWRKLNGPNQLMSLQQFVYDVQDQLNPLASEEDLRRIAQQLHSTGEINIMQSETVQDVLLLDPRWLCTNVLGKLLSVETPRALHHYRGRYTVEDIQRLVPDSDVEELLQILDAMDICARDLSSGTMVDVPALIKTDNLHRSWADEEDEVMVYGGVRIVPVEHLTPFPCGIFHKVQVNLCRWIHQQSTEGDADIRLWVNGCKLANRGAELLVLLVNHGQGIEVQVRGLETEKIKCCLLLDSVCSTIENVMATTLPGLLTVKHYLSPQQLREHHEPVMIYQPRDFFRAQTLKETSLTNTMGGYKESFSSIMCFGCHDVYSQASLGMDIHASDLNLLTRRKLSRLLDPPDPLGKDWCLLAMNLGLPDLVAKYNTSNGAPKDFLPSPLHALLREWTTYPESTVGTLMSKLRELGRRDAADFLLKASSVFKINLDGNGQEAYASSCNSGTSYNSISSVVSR
Sequence of kinases (KINOMEscan panel) (Homo sapiens, UniProt O00750) (O00750 whole entry): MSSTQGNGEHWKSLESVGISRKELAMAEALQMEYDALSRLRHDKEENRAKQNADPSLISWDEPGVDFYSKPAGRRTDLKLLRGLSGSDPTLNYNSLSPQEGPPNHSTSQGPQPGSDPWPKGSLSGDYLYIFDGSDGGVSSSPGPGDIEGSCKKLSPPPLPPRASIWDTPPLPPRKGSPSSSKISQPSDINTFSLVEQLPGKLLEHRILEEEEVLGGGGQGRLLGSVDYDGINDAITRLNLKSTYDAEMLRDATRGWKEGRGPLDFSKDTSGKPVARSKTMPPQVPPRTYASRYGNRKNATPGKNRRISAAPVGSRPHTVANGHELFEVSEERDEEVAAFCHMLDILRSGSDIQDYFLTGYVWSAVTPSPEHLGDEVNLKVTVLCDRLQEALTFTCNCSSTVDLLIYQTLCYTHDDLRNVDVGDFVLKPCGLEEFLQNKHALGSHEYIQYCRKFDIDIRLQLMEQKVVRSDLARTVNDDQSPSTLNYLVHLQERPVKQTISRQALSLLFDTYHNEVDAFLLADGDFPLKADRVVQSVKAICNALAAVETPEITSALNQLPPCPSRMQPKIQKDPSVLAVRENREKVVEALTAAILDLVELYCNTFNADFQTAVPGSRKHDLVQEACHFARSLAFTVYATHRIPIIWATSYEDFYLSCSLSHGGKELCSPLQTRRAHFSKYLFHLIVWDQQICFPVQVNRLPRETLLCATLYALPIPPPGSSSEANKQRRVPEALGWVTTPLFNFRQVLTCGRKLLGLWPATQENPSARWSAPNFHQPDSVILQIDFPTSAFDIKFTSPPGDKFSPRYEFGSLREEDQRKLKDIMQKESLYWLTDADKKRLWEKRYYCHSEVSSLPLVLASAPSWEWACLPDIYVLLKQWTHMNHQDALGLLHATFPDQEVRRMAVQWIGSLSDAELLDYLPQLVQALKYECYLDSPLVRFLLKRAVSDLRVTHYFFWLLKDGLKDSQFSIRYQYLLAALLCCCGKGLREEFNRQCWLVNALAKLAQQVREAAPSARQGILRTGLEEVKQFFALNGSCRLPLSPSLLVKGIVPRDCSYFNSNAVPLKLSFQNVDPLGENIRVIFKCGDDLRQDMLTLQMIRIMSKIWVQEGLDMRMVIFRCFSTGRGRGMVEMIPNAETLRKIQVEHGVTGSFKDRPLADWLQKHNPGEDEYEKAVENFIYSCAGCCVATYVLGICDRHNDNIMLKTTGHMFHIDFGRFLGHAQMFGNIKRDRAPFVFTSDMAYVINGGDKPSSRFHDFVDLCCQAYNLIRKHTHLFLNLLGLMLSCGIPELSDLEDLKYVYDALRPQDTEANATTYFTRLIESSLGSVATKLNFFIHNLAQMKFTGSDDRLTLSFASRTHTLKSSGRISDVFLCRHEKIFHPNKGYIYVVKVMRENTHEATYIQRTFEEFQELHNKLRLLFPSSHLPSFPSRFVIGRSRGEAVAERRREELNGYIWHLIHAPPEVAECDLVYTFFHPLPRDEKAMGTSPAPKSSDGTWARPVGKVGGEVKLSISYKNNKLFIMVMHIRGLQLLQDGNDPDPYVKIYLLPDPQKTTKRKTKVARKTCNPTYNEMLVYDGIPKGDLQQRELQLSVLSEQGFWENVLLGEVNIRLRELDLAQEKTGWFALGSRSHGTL
Sequence of kinases (KINOMEscan panel) (Homo sapiens, UniProt P07948) (P07948 whole entry): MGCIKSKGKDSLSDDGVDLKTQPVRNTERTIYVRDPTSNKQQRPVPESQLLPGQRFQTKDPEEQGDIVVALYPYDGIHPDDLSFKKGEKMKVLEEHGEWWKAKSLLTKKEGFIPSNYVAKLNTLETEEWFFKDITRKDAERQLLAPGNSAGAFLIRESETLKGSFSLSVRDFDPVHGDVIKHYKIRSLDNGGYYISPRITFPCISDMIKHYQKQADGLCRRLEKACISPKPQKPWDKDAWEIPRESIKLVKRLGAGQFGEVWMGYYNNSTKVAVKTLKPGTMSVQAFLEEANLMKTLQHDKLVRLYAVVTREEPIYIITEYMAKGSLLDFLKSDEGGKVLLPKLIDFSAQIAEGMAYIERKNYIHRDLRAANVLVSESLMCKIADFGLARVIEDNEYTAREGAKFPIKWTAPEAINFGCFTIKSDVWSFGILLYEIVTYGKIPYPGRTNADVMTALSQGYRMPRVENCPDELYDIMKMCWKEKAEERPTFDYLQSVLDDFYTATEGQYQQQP

SMILES | KINOMEscan PIK3C2B [1] | KINOMEscan LYN [2] | KINOMEscan EPHA8 [3] | KINOMEscan DAPK1 [4] | KINOMEscan EPHB3 [5] | KINOMEscan PRKCE [6] | KINOMEscan MAPK14/p38-alpha [7]
Cc1cccc(-c2nc(Nc3ccc4nn(C)cc4c3)c3ccccc3n2)n1 [NK167] | 0 | 17 | 0 | 0 | 6 | 0 | 5
Cc1cccc(-c2nc(N(C)c3ccc4ncsc4c3)c3ccccc3n2)n1 [NK-161] | 0 | 12 | 0 | 0 | 6 | 7 | 8

From article PMC9851200, “Multiparameter phenotypic screening for endogenous TFEB and TFE3 translocation identifies novel chemical series modulating lysosome function” (Autophagy, 2022)
